The numbers were not newly measured in US20030133903A1, “Compositions for treatment of prostate cancers and methods of making and using the same” (priority 2001, published 2003), which cites them from elsewhere.

Each structure is given as a SMILES string.

The test system of the data set is LNCaP cell line. The following applies: already published reports.

In the case of `CC(=O)O[C@H]1C(=O)[C@@]2(C)[C@H]([C@H](OC(=O)c3ccccc3)[C@]3(O)C[C@H](OC(=O)[C@H](O)[C@@H](NC(=O)c4ccccc4)c4ccccc4)C(C)=C1C3(C)C)[C@]1(OC(C)=O)CO[C@@H]1C[C@@H]2O` [paclitaxel], the IC50 result is given as “low nM or sub nM”.
